Laboratory results as given in patent US5190741A, “Agents for diagnosing and treating melanomas, aromatic halogenated derivatives usable as such agents and their preparation” (Institut National de la Sante et de la Recherche Medicale …, priority 1989, dated 1993).
Where two headings read alike, the source gives them in different places.

Key:
[1] = LD50 determination, i.v. (Karber and Behrens); conditions: mouse, in vivo, iv
Excerpt: (§1) The determination of the LD50 is made in the mouse after i.v. injection of the molecules according to the methodology described by Karber and Behrens.
(§2) 6 weeks old OF 1 male mice

[2] = tested on: 6 weeks old OF 1 male mice; experiment: LD50 determination, i.v. (Karber and Behrens); conditions: mouse, in vivo, iv
Excerpt: as §1, §2

[3] = tested on: Beu melanic human melanoma; experiment: Autoradiograms, nu/nu SSCUP nude mice bearing Beu; format: in vivo
Protocol: The autoradiograms are carried out in mice bearing grafted melanomas:
b. nu/nu SSCUP nudes bearing heterotransplants of melanic (Beu) or amelanic (Dau) human melanomas).
The animals bearing grafted tumors receive the labelled compounds in the form of the hydrochloride in saline solution (3.7 to 5×10^5 Bq/animal) in a caudal vein. At different time intervals after the administration of the compounds (from 15 minutes to 24 hours) the mice are anesthetized with ether and plunged into liquid nitrogen.
30 μm sections, parallel to a sagittal plane, are prepared in a freezing microtome (TS 260, SLEE) according to the protocol described by Ullberg.

[4] = Tissue distribution in Swiss nu/nu SSCUP mice bearing Dau; format: in vivo, human; conditions: mouse, iv, 3 umol/animal
Protocol: The study of the tissue distribution of the ^125 I labelled compounds was performed in mice bearing grafted melanomas (cf. autoradiograms above). […] The animals are sacrificed at different time intervals of 1 to 24 hours after the injection. The blood is collected and the principal organs are excised. Aliquots are weighed and the radioactivity of the samples is measured in a […] 1191 counter (analytic tracer). The counting yield for iodine 125 is 60%. The results are expressed: as a percentage of the injected dose bound per g of tissue (% ID/g); in the form of the ratios [formula] This ratio reflects more precisely the selectivity of a molecule for an organ (tables 2, 4, 6, 8, 10 and 12).

B16 melanoma = experiment: Scintillation imaging, C57 BL6 mice bearing B16; format: in vivo, mouse; conditions: ^123 I label
Excerpt: The mice bearing grafted tumors are anesthetized by the i.p. injection of sodium pentobarbital 1/5 and immobilized under a scintillation camera (Gammatome II, CGR) equipped with a pinhole 3-360 collimator, sensitivity 3.2 10^-4.
C57 BL6 bearing B16 melanomas at different stages of development.
The scanning observations have also been carried out after the injection of B into the following mice:
C57 BL6 bearing the B16 melanoma

[5] = intestine, read-out: intestine % ID/g
[6] = kidney, read-out: kidney % ID/g
[7] = muscle, read-out: muscle % ID/g
[8] = pancreas, read-out: pancreas % ID/g
[9] = plasma, read-out: plasma % ID/g
[10] = spleen, read-out: spleen % ID/g
[11] = stomach, read-out: stomach % ID/g
[12] = submaxillary glands, read-out: submaxillary glands % ID/g

SMILES: CCN(CC)CCNC(=O)c1ccc(I)cc1 [Derivative A, N-(2-diethylaminoethyl) 4-iodo benzamide]
- LD50 [1]: 125 mg/kg
- LD 0 [2]: 75 mg/kg
- LD 100 [2]: 150 mg/kg
- darkening of the film at the tumor ([3]; 1 to 4 h after i.v.): Identical images
- tumor visibility on autoradiogram ([3]; 24 h after i.v.): we can no longer see darkening of the film
- tissue uptake at 1 h ([4]; blood, read-out: blood % ID/g): 0.89 %ID/g
- tissue uptake at 2 h ([4]; blood, read-out: blood % ID/g): 0.52 %ID/g
- tissue uptake at 4 h ([4]; blood, read-out: blood % ID/g): 0.29 %ID/g
- tissue uptake at 6 h ([4]; blood, read-out: blood % ID/g): 0.23 %ID/g
- tissue uptake at 24 h ([4]; blood, read-out: blood % ID/g): 0.008 %ID/g
- tissue uptake at 8 h ([4]; blood, read-out: blood % ID/g): 0.14 %ID/g
- tissue uptake at 12 h ([4]; blood, read-out: blood % ID/g): 0.06 %ID/g
- tissue uptake at 1 h ([4]; brain, read-out: brain % ID/g): 1.4 %ID/g
- tissue uptake at 2 h ([4]; brain, read-out: brain % ID/g): 0.99 %ID/g
- tissue uptake at 4 h ([4]; brain, read-out: brain % ID/g): 0.51 %ID/g
- tissue uptake at 6 h ([4]; brain, read-out: brain % ID/g): 0.2 %ID/g
- tissue uptake at 24 h ([4]; brain, read-out: brain % ID/g): 0.002 %ID/g
- tissue uptake at 8 h ([4]; brain, read-out: brain % ID/g): 0.12 %ID/g
- tissue uptake at 12 h ([4]; brain, read-out: brain % ID/g): 0.02 %ID/g
- tissue uptake at 1 h ([4]; eye, read-out: eye % ID/g): 0.68 %ID/g
- tissue uptake at 2 h ([4]; eye, read-out: eye % ID/g): 0.54 %ID/g
- tissue uptake at 4 h ([4]; eye, read-out: eye % ID/g): 0.31 %ID/g
- tissue uptake at 6 h ([4]; eye, read-out: eye % ID/g): 0.16 %ID/g
- tissue uptake at 24 h ([4]; eye, read-out: eye % ID/g): 0.02 %ID/g
- tissue uptake at 8 h ([4]; eye, read-out: eye % ID/g): 0.1 %ID/g
- tissue uptake at 12 h ([4]; eye, read-out: eye % ID/g): 0.04 %ID/g
- tissue uptake at 1 h [4, 5]: 3.74 %ID/g
- tissue uptake at 2 h [4, 5]: 2.67 %ID/g
- tissue uptake at 4 h [4, 5]: 1.1 %ID/g
- tissue uptake at 6 h [4, 5]: 0.42 %ID/g
- tissue uptake at 8 h [4, 5]: 0.38 %ID/g
- tissue uptake at 12 h [4, 5]: 0.27 %ID/g
- tissue uptake at 24 h [4, 5]: 0.01 %ID/g
- tissue uptake at 1 h [4, 6]: 8.39 %ID/g
- tissue uptake at 2 h [4, 6]: 5.12 %ID/g
- tissue uptake at 4 h [4, 6]: 2.15 %ID/g
- tissue uptake at 6 h [4, 6]: 0.78 %ID/g
- tissue uptake at 24 h [4, 6]: 0.03 %ID/g
- tissue uptake at 8 h [4, 6]: 0.32 %ID/g
- tissue uptake at 12 h [4, 6]: 0.14 %ID/g
- tissue uptake at 1 h ([4]; liver, read-out: liver % ID/g): 5.68 %ID/g
- tissue uptake at 2 h ([4]; liver, read-out: liver % ID/g): 3.35 %ID/g
- tissue uptake at 4 h ([4]; liver, read-out: liver % ID/g): 2.1 %ID/g
- tissue uptake at 6 h ([4]; liver, read-out: liver % ID/g): 1.1 %ID/g
- tissue uptake at 24 h ([4]; liver, read-out: liver % ID/g): 0.1 %ID/g
- tissue uptake at 8 h ([4]; liver, read-out: liver % ID/g): 0.71 %ID/g
- tissue uptake at 12 h ([4]; liver, read-out: liver % ID/g): 0.3 %ID/g
- tissue uptake at 1 h ([4]; lungs, read-out: lungs % ID/g): 6.88 %ID/g
- tissue uptake at 2 h ([4]; lungs, read-out: lungs % ID/g): 5.63 %ID/g
- tissue uptake at 4 h ([4]; lungs, read-out: lungs % ID/g): 2.84 %ID/g
- tissue uptake at 6 h ([4]; lungs, read-out: lungs % ID/g): 0.76 %ID/g
- tissue uptake at 8 h ([4]; lungs, read-out: lungs % ID/g): 0.45 %ID/g
- tissue uptake at 12 h ([4]; lungs, read-out: lungs % ID/g): 0.11 %ID/g
- tissue uptake at 24 h ([4]; lungs, read-out: lungs % ID/g): 0.02 %ID/g
- tissue uptake at 1 h [4, 7]: 1.28 %ID/g
- tissue uptake at 2 h [4, 7]: 0.79 %ID/g
- tissue uptake at 4 h [4, 7]: 0.32 %ID/g
- tissue uptake at 6 h [4, 7]: 0.11 %ID/g
- tissue uptake at 24 h [4, 7]: 0.006 %ID/g
- tissue uptake at 8 h [4, 7]: 0.07 %ID/g
- tissue uptake at 12 h [4, 7]: 0.02 %ID/g
- tissue uptake at 1 h [4, 8]: 4.06 %ID/g
- tissue uptake at 2 h [4, 8]: 2.29 %ID/g
- tissue uptake at 4 h [4, 8]: 0.97 %ID/g
- tissue uptake at 6 h [4, 8]: 0.41 %ID/g
- tissue uptake at 8 h [4, 8]: 0.24 %ID/g
- tissue uptake at 12 h [4, 8]: 0.13 %ID/g
- tissue uptake at 24 h [4, 8]: 0.03 %ID/g
- tissue uptake at 1 h [4, 9]: 0.55 %ID/g
- tissue uptake at 2 h [4, 9]: 0.33 %ID/g
- tissue uptake at 4 h [4, 9]: 0.24 %ID/g
- tissue uptake at 6 h [4, 9]: 0.24 %ID/g
- tissue uptake at 24 h [4, 9]: 0.007 %ID/g
- tissue uptake at 8 h [4, 9]: 0.15 %ID/g
- tissue uptake at 12 h [4, 9]: 0.06 %ID/g
- tissue uptake at 1 h [4, 10]: 3.48 %ID/g
- tissue uptake at 2 h [4, 10]: 1.95 %ID/g
- tissue uptake at 4 h [4, 10]: 0.8 %ID/g
- tissue uptake at 6 h [4, 10]: 0.3 %ID/g
- tissue uptake at 8 h [4, 10]: 0.16 %ID/g
- tissue uptake at 12 h [4, 10]: 0.07 %ID/g
- tissue uptake at 24 h [4, 10]: 0.02 %ID/g
- tissue uptake at 1 h [4, 11]: 2.32 %ID/g
- tissue uptake at 2 h [4, 11]: 1.85 %ID/g
- tissue uptake at 4 h [4, 11]: 1.36 %ID/g
- tissue uptake at 6 h [4, 11]: 1.17 %ID/g
- tissue uptake at 8 h [4, 11]: 0.71 %ID/g
- tissue uptake at 12 h [4, 11]: 0.38 %ID/g
- tissue uptake at 24 h [4, 11]: 0.03 %ID/g
- tissue uptake at 1 h [4, 12]: 4.75 %ID/g
- tissue uptake at 2 h [4, 12]: 3.56 %ID/g
- tissue uptake at 4 h [4, 12]: 1.5 %ID/g
- tissue uptake at 6 h [4, 12]: 0.86 %ID/g
- tissue uptake at 8 h [4, 12]: 0.77 %ID/g
- tissue uptake at 12 h [4, 12]: 0.3 %ID/g
- tissue uptake at 24 h [4, 12]: 0.02 %ID/g
- tissue uptake at 1 h ([4]; tumor, read-out: tumor % ID/g): 1.51 %ID/g
- tissue uptake at 2 h ([4]; tumor, read-out: tumor % ID/g): 1.29 %ID/g
- tissue uptake at 4 h ([4]; tumor, read-out: tumor % ID/g): 0.45 %ID/g
- tissue uptake at 6 h ([4]; tumor, read-out: tumor % ID/g): 0.23 %ID/g
- tissue uptake at 24 h ([4]; tumor, read-out: tumor % ID/g): 0.009 %ID/g
- tissue uptake at 8 h ([4]; tumor, read-out: tumor % ID/g): 0.11 %ID/g
- tissue uptake at 12 h ([4]; tumor, read-out: tumor % ID/g): 0.07 %ID/g
- tissue uptake ([4]; tumor, only during the 2 hours following injection, Dau, read-out: intratumoral concentration): > 1 %ID/g
- images compared with ^125 I-A (B16 melanoma): identical images
